Data: PubChem BioAssay (NCI)
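Tested at 5 concentrations; 48 h exposure; 96-well plates; endpoints linearly interpolated, else capped at highest concentration. GI50 is the concentration that inhibits growth by half. The concentration for full growth arrest is given as TGI.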

Key:
Assay in all cases: NCI anticancer screen, dose series, 48 h; in the data active = GI50 below about 0.43 µM; inactive = the rest
OVCAR-3 ovarian = test system: OVCAR-3 ovarian
A498 renal = test system: A498 renal
U251 CNS = test system: U251 CNS
NCI-H460 lung = test system: NCI-H460 lung
PC-3 prostate = test system: PC-3 prostate
T-47D breast = test system: T-47D breast
SNB-19 CNS = test system: SNB-19 CNS
SF-295 CNS = test system: SF-295 CNS
SNB-75 CNS = test system: SNB-75 CNS
RXF 393 renal = test system: RXF 393 renal
MALME-3M melanoma = test system: MALME-3M melanoma
HCT-116 colon = test system: HCT-116 colon
OVCAR-4 ovarian = test system: OVCAR-4 ovarian
SK-MEL-2 melanoma = test system: SK-MEL-2 melanoma
UACC-257 melanoma = test system: UACC-257 melanoma
HCT-15 colon = test system: HCT-15 colon
MOLT-4 leukemia = test system: MOLT-4 leukemia
KM12 colon = test system: KM12 colon
NCI-H23 lung = test system: NCI-H23 lung
IGROV1 ovarian = test system: IGROV1 ovarian
HT29 colon = test system: HT29 colon
NCI/ADR-RES ovarian = test system: NCI/ADR-RES ovarian
EKVX NSCLC = test system: EKVX NSCLC
MDA-MB-231 breast = test system: MDA-MB-231 breast
MDA-MB-435 = test system: MDA-MB-435
K-562 leukemia = test system: K-562 leukemia
SF-539 CNS = test system: SF-539 CNS
COLO 205 colon = test system: COLO 205 colon
HL-60(TB) leukemia = test system: HL-60(TB) leukemia
SN12C renal = test system: SN12C renal
OVCAR-8 ovarian = test system: OVCAR-8 ovarian
OVCAR-5 ovarian = test system: OVCAR-5 ovarian
SK-OV-3 ovarian = test system: SK-OV-3 ovarian
HCC-2998 colon = test system: HCC-2998 colon
M14 melanoma = test system: M14 melanoma
HOP-62 NSCLC = test system: HOP-62 NSCLC
CAKI-1 renal = test system: CAKI-1 renal
SK-MEL-28 melanoma = test system: SK-MEL-28 melanoma
A549 NSCLC = test system: A549 NSCLC
DU-145 prostate = test system: DU-145 prostate
SF-268 CNS = test system: SF-268 CNS
HS 578T breast = test system: HS 578T breast
MCF7 breast = test system: MCF7 breast
SK-MEL-5 melanoma = test system: SK-MEL-5 melanoma
HOP-92 NSCLC = test system: HOP-92 NSCLC
CCRF-CEM leukemia = test system: CCRF-CEM leukemia
SW-620 colon = test system: SW-620 colon
NCI-H226 lung = test system: NCI-H226 lung
UACC-62 melanoma = test system: UACC-62 melanoma
SR leukemia = test system: SR leukemia
BT-549 breast = test system: BT-549 breast
TK-10 renal = test system: TK-10 renal

O=C(CSc1nnc(-c2ccc(Cl)cc2)n1-c1ccccc1)Nc1cccc(F)c1
4.46 µM: TGI (U251 CNS)
> 100 µM: TGI (PC-3 prostate) | TGI (T-47D breast) | TGI (SNB-19 CNS) | TGI (MALME-3M melanoma) | TGI (HCT-116 colon) | TGI (OVCAR-4 ovarian) | TGI (SK-MEL-2 melanoma) | TGI (UACC-257 melanoma) | TGI (HCT-15 colon) | TGI (MOLT-4 leukemia) | TGI (KM12 colon) | TGI (NCI-H23 lung) | TGI (IGROV1 ovarian) | TGI (HT29 colon) | TGI (EKVX NSCLC) | TGI (MDA-MB-435) | TGI (K-562 leukemia) | TGI (COLO 205 colon) | TGI (HL-60(TB) leukemia) | TGI (OVCAR-8 ovarian) | TGI (OVCAR-5 ovarian) | TGI (SK-OV-3 ovarian) | TGI (HCC-2998 colon) | TGI (M14 melanoma) | TGI (CAKI-1 renal) | TGI (SK-MEL-28 melanoma) | TGI (A549 NSCLC) | TGI (DU-145 prostate) | TGI (SF-268 CNS) | TGI (HS 578T breast) | TGI (MCF7 breast) | TGI (SK-MEL-5 melanoma) | TGI (HOP-92 NSCLC) | TGI (CCRF-CEM leukemia) | TGI (SW-620 colon) | TGI (NCI-H226 lung) | TGI (UACC-62 melanoma) | TGI (SR leukemia) | TGI (BT-549 breast) | TGI (TK-10 renal)
inactive: GI50 (OVCAR-3 ovarian) 4.11 µM | GI50 (A498 renal) 4.5 µM | GI50 (U251 CNS) 1.62 µM | GI50 (NCI-H460 lung) 1.49 µM | GI50 (PC-3 prostate) > 100 µM | GI50 (T-47D breast) 1.58 µM | GI50 (SNB-19 CNS) 6.27 µM | GI50 (SF-295 CNS) 3.98 µM | GI50 (SNB-75 CNS) 2.09 µM | GI50 (RXF 393 renal) 2.86 µM | GI50 (MALME-3M melanoma) 3.9 µM | GI50 (HCT-116 colon) 2.38 µM | GI50 (OVCAR-4 ovarian) > 100 µM | GI50 (SK-MEL-2 melanoma) > 100 µM | GI50 (UACC-257 melanoma) > 100 µM | GI50 (HCT-15 colon) > 100 µM | GI50 (MOLT-4 leukemia) > 100 µM | GI50 (KM12 colon) > 21 µM | GI50 (NCI-H23 lung) 5.14 µM | GI50 (IGROV1 ovarian) 3.2 µM | GI50 (HT29 colon) > 27 µM | GI50 (NCI/ADR-RES ovarian) 2.26 µM | GI50 (EKVX NSCLC) > 23 µM | GI50 (MDA-MB-231 breast) 2.36 µM | GI50 (MDA-MB-435) > 100 µM | GI50 (K-562 leukemia) > 100 µM | GI50 (SF-539 CNS) 2.33 µM | GI50 (COLO 205 colon) > 100 µM | GI50 (HL-60(TB) leukemia) > 100 µM | GI50 (SN12C renal) 1.91 µM | GI50 (OVCAR-8 ovarian) 3.03 µM | GI50 (SK-OV-3 ovarian) 10.2 µM | GI50 (HCC-2998 colon) > 30.3 µM | GI50 (M14 melanoma) > 100 µM | GI50 (HOP-62 NSCLC) 3.18 µM | GI50 (CAKI-1 renal) 2.89 µM | GI50 (SK-MEL-28 melanoma) > 100 µM | GI50 (A549 NSCLC) 2.77 µM | GI50 (DU-145 prostate) > 30.3 µM | GI50 (SF-268 CNS) > 21.4 µM | GI50 (HS 578T breast) 3.3 µM | GI50 (MCF7 breast) 3.47 µM | GI50 (SK-MEL-5 melanoma) > 55.4 µM | GI50 (HOP-92 NSCLC) 4 µM | GI50 (CCRF-CEM leukemia) > 100 µM | GI50 (SW-620 colon) 5 µM | GI50 (NCI-H226 lung) 4.11 µM | GI50 (UACC-62 melanoma) > 100 µM | GI50 (SR leukemia) > 35.3 µM | GI50 (BT-549 breast) > 100 µM | GI50 (TK-10 renal) 4.65 µM
> 22.4 µM: TGI (SF-539 CNS)
73.9 µM: TGI (OVCAR-3 ovarian) | TGI (A498 renal)
> 26.4 µM: TGI (HOP-62 NSCLC)
> 36 µM: TGI (RXF 393 renal)
> 30.5 µM: TGI (SNB-75 CNS)
> 24.2 µM: TGI (MDA-MB-231 breast)
> 70.6 µM: TGI (SF-295 CNS)
6.26 µM: TGI (SN12C renal)
8.77 µM: TGI (NCI/ADR-RES ovarian)
